{
  "source": "BindingDB's records for doi:10.1021/jm010936y",
  "about": "(2002)",
  "molecular_target": "Neuronal acetylcholine receptor alpha3/beta4 (Sus scrofa)",
  "test": "Binding affinity to Nicotinic acetylcholine receptor alpha3-beta4 using +/-[3H]epibatidine as radioligand in pig adrenal gland",
  "data": [
    {"smiles": "C1=C(c2ccnnc2)C2CC[C@H](CC1)N2", "note": "[2-Pyridazin-4-yl-9-aza-bicyclo[4.2.1]non-2-ene]", "values": [
      {"measurement": "Ki", "result": 0.0025, "unit": "µM"}
    ]},
    {"smiles": "C1=C(c2cncnc2)C2CC[C@H](CC1)N2", "note": "[2-Pyrimidin-5-yl-9-aza-bicyclo[4.2.1]non-2-ene]", "values": [
      {"measurement": "Ki", "result": 0.02, "unit": "µM"}
    ]}
  ]
}
